Measured values reported in patent US20080318070A1, “Water-Soluble Preflux and Usage of the Same” (SHIKOKU CHEMICALS CORPORATION, priority 2005, published 2008).

Key:
[1] = Solubilization test of imidazole compounds; type: physicochemical; conditions: 0.20 g imidazole compound dissolved in 2.0 g carboxylic acid compound; ion-exchange water added until solution became clouded; larger = better solubilization
Method: Solubilization Test of Imidazole Compounds
After 0.20 g of 2-pheny-(3,4-dichlorophenyl)imidazole was dissolved in 2.0 g of the carboxylic acid compound for use in the invention, there was measured an amount of water required until the solution became clouded when ion-exchange water was added. The larger amount of water is judged to be more excellent in imidazole compound-solubilization performance of the carboxylic acid compound.
It is recognized that a chemical structure wherein an alkoxy group (R^1—O—) and a carboxymethyl group (—CH2COOH) or a carboxyethyl group (—C2H4COOH) is combined via an alkylene ether chain (—CH2CH(R^2)—O—) enhances the imidazole compound-solubilization performance.

[2] = reported; cited from earlier work

SMILES	Amount of water added [1] [mL]	metabolism in the living body [2]	toxic effect [2]
CCCCOCC(=O)O [2-(n-Butoxy)acetic acid]	1.0	–	–
CCCOCC(=O)O [2-(n-Propoxy)acetic acid]	2.8	–	–
CCOCC(=O)O [Compound A, 2-Ethoxyacetic acid]	3.3	–	–
CCOCCOCCOCC(=O)O [Compound C, 2-[2-(2-ethoxyethoxy)ethoxy]acetic acid]	3.6	–	–
CCCOCC(C)OCC(C)OCC(=O)O (centres unmarked) [Compound F, 2-[2-(2-propoxy-1-methylethoxy)-1-methylethoxy]acetic acid]	3.0	–	–
CCCCOCC(C)OCC(C)OCC(C)OCC(=O)O (centres unmarked) [Compound G, 2-{2-[2-(2-butoxy-1-methylethoxy)-1-methylethoxy]-1-methylethoxy}acetic acid]	2.0	–	–
COCC(=O)O [methoxyacetic acid]	–	difficult to metabolize in the living body	causing testicular atrophy or teratogenicity
